Common to all, as to assay type: biochemical
The target of assay [1] is T1, MELK (maternal embryonic leucine zipper kinase) (Homo sapiens, UniProt Q14680).
T1 construct: recombinant MELK protein
Description: Z'-LYTE kinome assay at […] (ATP Km app); ADP-Glo dose-response with recombinant MELK; supported by biotin-CRO15 pull-down. On the technique in general: In ADP-Glo the light output rises with the ADP produced.

A further assay concerns the target MAPKAPK2 (Homo sapiens, UniProt P49137). Put plainly: Z'-LYTE kinome assay at […] (ATP Km app), n = […]. The conditions noted are these: read-out: CRO15 1 μM.
The next assay deals with GSK3B (GSK3 beta) (Homo sapiens, UniProt P49841). Description: Z'-LYTE kinome assay at […] (ATP Km app), n = […]. The following applies: read-out: CRO15 1 μM.
The target of the next assay is AKT2 (PKB beta) (Homo sapiens, UniProt P31751). Put plainly: Z'-LYTE kinome assay at […], n = […]. The following applies: read-out: CRO15 1 μM.

Each structure is given as a SMILES string.

MAPKAPK2, sequence (P49137 whole entry): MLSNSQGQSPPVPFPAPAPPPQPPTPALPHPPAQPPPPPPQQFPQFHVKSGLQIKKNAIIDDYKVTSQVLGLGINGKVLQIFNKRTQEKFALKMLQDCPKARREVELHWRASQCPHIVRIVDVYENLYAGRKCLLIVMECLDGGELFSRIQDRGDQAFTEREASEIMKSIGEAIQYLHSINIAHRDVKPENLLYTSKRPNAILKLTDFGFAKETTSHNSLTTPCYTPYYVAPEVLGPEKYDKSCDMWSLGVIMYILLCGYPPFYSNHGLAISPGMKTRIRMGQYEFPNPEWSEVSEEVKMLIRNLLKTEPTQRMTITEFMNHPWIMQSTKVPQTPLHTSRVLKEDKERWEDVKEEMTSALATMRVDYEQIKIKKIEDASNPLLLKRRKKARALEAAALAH
GSK3B (GSK3 beta), sequence (P49841 whole entry): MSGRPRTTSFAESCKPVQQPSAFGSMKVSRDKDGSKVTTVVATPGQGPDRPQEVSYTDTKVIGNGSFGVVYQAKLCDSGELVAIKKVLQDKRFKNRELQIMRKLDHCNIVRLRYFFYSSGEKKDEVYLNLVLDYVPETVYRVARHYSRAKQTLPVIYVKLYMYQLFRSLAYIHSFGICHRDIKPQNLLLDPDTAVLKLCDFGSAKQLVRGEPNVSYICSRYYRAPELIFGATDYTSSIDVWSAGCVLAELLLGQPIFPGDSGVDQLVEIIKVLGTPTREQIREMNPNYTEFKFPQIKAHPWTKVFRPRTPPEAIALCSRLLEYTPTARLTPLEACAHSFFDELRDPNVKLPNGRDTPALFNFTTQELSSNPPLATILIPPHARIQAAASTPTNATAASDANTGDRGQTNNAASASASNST
AKT2 (PKB beta), sequence (P31751 whole entry): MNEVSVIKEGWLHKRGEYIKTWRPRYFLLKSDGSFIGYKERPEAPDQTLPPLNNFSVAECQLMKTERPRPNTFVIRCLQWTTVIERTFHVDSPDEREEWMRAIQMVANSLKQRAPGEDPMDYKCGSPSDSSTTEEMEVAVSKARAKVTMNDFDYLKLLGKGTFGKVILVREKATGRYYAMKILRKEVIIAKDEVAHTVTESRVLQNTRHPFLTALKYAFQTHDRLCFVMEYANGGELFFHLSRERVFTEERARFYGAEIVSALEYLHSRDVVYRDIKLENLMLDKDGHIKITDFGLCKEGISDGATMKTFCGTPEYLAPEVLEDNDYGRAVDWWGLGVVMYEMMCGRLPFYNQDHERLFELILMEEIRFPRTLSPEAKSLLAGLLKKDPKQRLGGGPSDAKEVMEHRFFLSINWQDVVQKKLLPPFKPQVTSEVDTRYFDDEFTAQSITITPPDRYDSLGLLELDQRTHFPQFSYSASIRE
T1 sequence (Q14680 whole entry): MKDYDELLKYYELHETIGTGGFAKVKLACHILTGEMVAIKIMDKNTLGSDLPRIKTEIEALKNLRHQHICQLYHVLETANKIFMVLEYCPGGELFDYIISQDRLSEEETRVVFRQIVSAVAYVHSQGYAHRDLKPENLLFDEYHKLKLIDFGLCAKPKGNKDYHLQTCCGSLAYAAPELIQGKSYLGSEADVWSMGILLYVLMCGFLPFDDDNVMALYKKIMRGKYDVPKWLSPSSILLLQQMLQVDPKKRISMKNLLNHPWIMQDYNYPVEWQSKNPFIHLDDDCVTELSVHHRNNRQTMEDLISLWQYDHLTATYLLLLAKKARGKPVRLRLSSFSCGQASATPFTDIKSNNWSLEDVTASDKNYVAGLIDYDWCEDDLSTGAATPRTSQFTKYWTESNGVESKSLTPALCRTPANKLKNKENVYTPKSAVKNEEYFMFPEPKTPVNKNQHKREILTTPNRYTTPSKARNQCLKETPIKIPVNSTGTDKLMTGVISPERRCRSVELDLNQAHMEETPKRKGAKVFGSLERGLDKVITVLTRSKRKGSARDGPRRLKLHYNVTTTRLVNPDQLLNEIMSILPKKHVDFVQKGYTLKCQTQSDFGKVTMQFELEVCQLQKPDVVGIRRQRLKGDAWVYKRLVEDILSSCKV

In the case of `Nc1nc(Nc2ccccc2SSc2ccccc2Nc2nc(N)nc(C(Cl)(Cl)Cl)n2)nc(C(Cl)(Cl)Cl)n1` [CRO15], the inhibition at 1 µM in assay [1] amounted to 72%; at MAPKAPK2, 90%; on GSK3B (GSK3 beta) it was 72%; at AKT2 (PKB beta), 74%.

These data come from publication PMC7801734, “Discovery of a new molecule inducing melanoma cell death: dual AMPK/MELK targeting for novel melanoma therapies” (Cell Death & Disease, 2021).
